Experimental data reported in PMC11284788, “NN1213 – A Potent, Long-Acting, and Selective Analog of Human Amylin” (Journal of Medicinal Chemistry, 2024).
Numbered stars: 1 amine (or outer) side, 2 acyl side, 3 side chain; on linkers, the order of the positions; unused ones are H or OH. Bridge positions count the residues as written; N and C are the ends. Side chains are listed from the residue outwards. Peptide text beside a SMILES is read from it. * marks the point of attachment. C20 diacid = O=C(O)CCCCCCCCCCCCCCCCCCC(=O)*; γGlu = O=C(O)[C@H](CCC(=O)[*:2])N[*:1]

What was measured:
[1] = ThT assay: fibril formation propensity and peptide recovery; format: physicochemical; conditions: for recovery: residual dissolved peptide after 45 h of shaking, centrifugation and 0.22 μm filtration, HPLC, relative to amount before stress; for ThT, pH 7.5 lag-time: 10 mM HEPES pH 7.5, 1 μM ThT
How it was run: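 Peptides at 250 μM in 10 mM glycylglycine (pH 4.0) or HEPES (pH 7.5) with 1 μM ThT, shaken at 37 °C, 960 rpm, for 45 h; ThT fluorescence (ex 444/em 485 nm) read every 20 min. Lag time is the lowest of four replicates (>45 h if none); recovery is soluble peptide by HPLC after centrifugation/filtration, relative to pre-stress.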

[2] = HMWP content by size-exclusion chromatography; format: physicochemical; conditions: covalent dimers and polymers prior to fibril formation testing, SEC, % of total absorbance area at 215 nm
How it was run: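 Amylin analogs analysed before fibril-formation testing by isocratic SEC in 0.5 M NaCl, 10 mM sodium dihydrogen phosphate, 5 mM ortho-phosphoric acid, 50% (v/v) 2-propanol. HMWP (covalent dimers/polymers) given as peak absorbance area percentage of total, assuming equal extinction coefficients for HMWP and main peak.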

[3] = 250 μM peptide, 37 °C, 960 rpm, 45 h, lowest of four replicas, average of experiments

Row | ThT, pH 7.5 lag-time [1, 3] [h] | recovery ([1]; pH 7.5) [%] | HMWP ([2]; analogs 1–9 (pH 7.5 series)) [%] | Structure (SMILES) | ThT, pH 4.0 lag-time ([1]; 250 μM peptide, 10 mM glycylglycine pH 4.0, 1 μM ThT, 37 °C, 960 rpm, 45 h, lowest of four replicas, average of experiments, listed as 21) [h] | recovery ([1]; pH 4.0) [%] | HMWP ([2]; analogs 10–21 (pH 4.0 series)) [%]
1 | – | – | – | CC[C@H](C)[C@H](NC(=O)[C@H](C)NC(=O)CNC(=O)[C@H](Cc1ccccc1)NC(=O)[C@H](CC(N)=O)NC(=O)[C@@H]1CCCN1C(=O)[C@H](CO)NC(=O)[C@H](CO)NC(=O)[C@H](Cc1c[nH]cn1)NC(=O)[C@H](CCCNC(=N)N)NC(=O)[C@H](CC(C)C)NC(=O)[C@H](Cc1ccccc1)NC(=O)[C@H](CC(=O)O)NC(=O)[C@H](C)NC(=O)[C@H](CC(C)C)NC(=O)[C@H](CCCNC(=N)N)NC(=O)[C@H](CCC(N)=O)NC(=O)[C@@H](NC(=O)[C@H](C)NC(=O)[C@@H]1CSSC[C@H](NC(=O)[C@@H](N)CCCCNC(=O)CC[C@H](NC(=O)CC[C@H](NC(=O)CCCCCCCCCCCCCCCCCCC(=O)O)C(=O)O)C(=O)O)C(=O)N[C@@H](CC(N)=O)C(=O)N[C@@H]([C@@H](C)O)C(=O)N[C@@H](C)C(=O)N[C@@H]([C@@H](C)O)C(=O)N1)[C@@H](C)O)C(=O)N1CCC[C@H]1C(=O)N[C@@H](CO)C(=O)N[C@@H](CO)C(=O)N[C@H](C(=O)N[C@@H](CC(N)=O)C(=O)N[C@H](C(=O)NCC(=O)N[C@@H](CO)C(=O)N[C@@H](CCCNC(=N)N)C(=O)N[C@H](C(=O)N[C@@H](Cc1ccc(O)cc1)C(N)=O)[C@@H](C)O)C(C)C)[C@@H](C)O [NN1213] | 42 | 96 | 0.9
2 | 0.3 | 19 | 24 | CC[C@H](C)[C@H](NC(=O)[C@@H]1CCCN1C(=O)CNC(=O)[C@H](Cc1ccccc1)NC(=O)[C@H](CC(N)=O)NC(=O)[C@@H]1CCCN1C(=O)[C@H](CO)NC(=O)[C@H](CO)NC(=O)[C@H](Cc1c[nH]cn1)NC(=O)[C@H](CCCNC(=N)N)NC(=O)[C@H](CC(C)C)NC(=O)[C@H](Cc1ccccc1)NC(=O)[C@H](CC(=O)O)NC(=O)[C@H](C)NC(=O)[C@H](CC(C)C)NC(=O)[C@H](CCCNC(=N)N)NC(=O)[C@H](CCC(N)=O)NC(=O)[C@@H](NC(=O)[C@H](C)NC(=O)[C@@H]1CSSC[C@H](NC(=O)[C@@H](N)CCCCNC(=O)CC[C@H](NC(=O)CC[C@H](NC(=O)CCCCCCCCCCCCCCCCCCC(=O)O)C(=O)O)C(=O)O)C(=O)N[C@@H](CC(N)=O)C(=O)N[C@@H]([C@@H](C)O)C(=O)N[C@@H](C)C(=O)N[C@@H]([C@@H](C)O)C(=O)N1)[C@@H](C)O)C(=O)N[C@@H](CC(C)C)C(=O)N[C@@H](CO)C(=O)N[C@@H](CO)C(=O)N[C@H](C(=O)N[C@@H](CC(N)=O)C(=O)N[C@H](C(=O)NCC(=O)N[C@@H](CO)C(=O)N[C@@H](CC(=O)O)C(=O)N[C@H](C(=O)N[C@@H](Cc1ccc(O)cc1)C(N)=O)[C@@H](C)O)C(C)C)[C@@H](C)O [Peptide 3] (H-K([γGlu-γGlu-C20 diacid])CNTATCATQRLADFLRHSSPNFGPILSSTNVGSDTY-NH2; disulfide 2-7) | – | – | –
3 | 35 | 100 | 7 | CC(C)C[C@H](NC(=O)[C@H](CCCNC(=N)N)NC(=O)[C@H](CCC(N)=O)NC(=O)[C@@H](NC(=O)[C@H](C)NC(=O)[C@@H]1CSSC[C@H](NC(=O)[C@@H](N)CCCCNC(=O)CC[C@H](NC(=O)CC[C@H](NC(=O)CCCCCCCCCCCCCCCCCCC(=O)O)C(=O)O)C(=O)O)C(=O)N[C@@H](CC(N)=O)C(=O)N[C@@H]([C@@H](C)O)C(=O)N[C@@H](C)C(=O)N[C@@H]([C@@H](C)O)C(=O)N1)[C@@H](C)O)C(=O)N[C@@H](C)C(=O)N[C@@H](CC(=O)O)C(=O)N[C@@H](Cc1ccccc1)C(=O)N[C@@H](CC(C)C)C(=O)N[C@@H](CCCNC(=N)N)C(=O)N[C@@H](Cc1c[nH]cn1)C(=O)N[C@@H](CO)C(=O)N[C@@H](CO)C(=O)N1CCC[C@H]1C(=O)N[C@@H](CC(N)=O)C(=O)N[C@@H](Cc1ccccc1)C(=O)NCC(=O)N[C@@H](C)C(=O)N1CCC[C@H]1C(=O)N[C@@H](CC(C)C)C(=O)N[C@@H](CO)C(=O)N[C@@H](CO)C(=O)N[C@H](C(=O)N[C@@H](CC(N)=O)C(=O)N[C@H](C(=O)NCC(=O)N[C@@H](CO)C(=O)N[C@@H](CC(=O)O)C(=O)N[C@H](C(=O)N[C@@H](Cc1ccc(O)cc1)C(N)=O)[C@@H](C)O)C(C)C)[C@@H](C)O [Peptide 5] (H-K([γGlu-γGlu-C20 diacid])CNTATCATQRLADFLRHSSPNFGAPLSSTNVGSDTY-NH2; disulfide 2-7) | – | – | –
